Marks after values point to notes of the source that are not given here.
Assays:
NCI-H460 = test: Anti-cancer activity, NCI-H460 large cell lung cancer cells (MTT); format: cell-based; details: Homo sapiens, NCI-H460, 120 h, 5 days, read-out: IC50 μM, NCI-H460 Lung (NSCLC)
[1] = tested on: TXA2 synthesis in RA stimulated U937 cells; test: TXA2 synthesis in RA-stimulated U937 cells; format: cell-based, human; details: for TXA2 / TXA2 (pg): A23187; for TXA2 (pg): test compound 100 μM
Protocol: U937 cells were thawed and resuspended in RPM1 and 10% FCS at 2×10^5 cells per ml. The cells were incubated in 5% CO2 at 37° C. and expanded in growing culture to at least 6.4×10^7 total cells. The cells were then resuspended in fresh medium and cultured with […] (RA) at 2×10^5 cells per ml for a further 3 days (72 h). RA treated cells were washed 2× in serum-free RPM and resuspended in serum-free medium at 5×10^6 cells per ml. The cells were aliquotted into Teflon tubes at 1 ml per tube. Working stock solutions of each test compound were prepared at 0.1 mM, 1 mM and 10 mM as described above. For each test compound at each working dilution, 10 μl was added to 1 ml cells to achieve a final concentration of 0 (DMSO alone), 1, 10, and 100 μM for each test compound. Cells were incubated in triplicate with each concentration of test compound for 15 min at 37° C. After 15 min pre-incubation, each 1 ml tube of cells received 5 μl of a […] solution of the calcium ionophore A23187 (to achieve 0.5 μM A23187). Incubation at 37° C. was continued for a further 30 min. After incubation, supernatants were collected by centrifugation at 2000 rpm for 10 min and stored at −20° C. until required for assay.

[2] = tested on: human umbilical vein smooth muscle cells (HUVSMC); test: Proliferation of human umbilical vein smooth muscle cells (MTT); format: cell-based
How it was run: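 Read-out is MTT absorbance expressed as test/control*100−100 versus FCS-stimulated untreated controls. Serum-starved smooth muscle cells (1.6×10^3/well, 20 h without FCS) got 10 μM final analogue for 1 h before 10% FCS, then grew about 5 days to control confluence.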

[3] = tested on: A7r5 rat aortic smooth muscle cells; test: Proliferation of A7r5 rat aortic smooth muscle cells; format: cell-based; details: A7R5, 72 h, three days, read-out: IC50, inhibition of proliferation in A7r5 cells
Protocol: The effect of test compounds on human umbilical vein smooth muscle cells (HUVSMC), was examined. Cells, tissue explants from a neonate (HRI—passage 2), were seeded into 96 well plates at 1×10^3 cells per well, and allowed to attach for 24 hours. They were then washed twice and incubated in medium without foetal calf serum (FCS) for 24-48 hours to serum-starve them. Test compounds were prepared in medium without FCS and added to the plates and incubated for one hour. Medium with FCS was added to give a final concentration of 10% and the plates incubated for 4-5 days until the controls were just confluent.
The effect of test compounds on rat aortic smooth muscle cell line (A7r5) and another cell line from the media of rat aorta (A10) was examined. The methodology was the same as for HUVSMC, except that the cells were treated with compound for three days.

MM200 = test: Anti-cancer activity, MM200 melanoma cells (MTT); format: cell-based; details: 120 h; 5 days, MTT
HT29 = test: Anti-cancer activity, HT-29 colon adenocarcinoma cells (MTT); format: cell-based; details: Homo sapiens, HT-29, 120 h, 5 days, read-out: IC50 μM, HT29 Colorectal
HPAC = test: Anti-cancer activity, HPAC pancreatic cancer cells (MTT); format: cell-based; details: Homo sapiens, 120 h, 5 days
PMA-induced ear oedema = test: PMA-induced ear swelling in mice; format: in vivo, BALB/c mice; details: 25 mg/kg i/p; 5 h after PMA
Protocol: Groups of 5-6 female BALB/c mice (ARC, WA, Australia), weighing 15-21 g were injected intraperitoneally (i/p) with test compound at 25 mg/kg delivered in polyethylene glycol (PEG) 400: phosphate buffered saline (PBS) 1:1 or ethanol: propanediol: PBS 4:9:7 either 30 min prior to or immediately before the inflammogen was applied to the ears. Mice were anaesthetised using isoflurane and baseline thickness of both ears was measured using a spring micrometer. Each mouse received a total of 20 μL of either AA in ethanol (50 mg/ml or 200 mg/ml) or PMA in either ethanol or acetone (0.2 mg/ml) applied to the inner and outer surfaces of each pinna (i.e. 0.5 mg or 2 mg AA or 2 μg PMA per ear). Mice were anaesthetised again to re-measure the ears at 1 h post-AA application and 5 h after PMA. The difference in ear swelling pre- and post-application of inflammogen for each ear was calculated, and the average for the two ears of each mouse taken. The difference in mean swelling of each test group compared to the group given vehicle alone was calculated using a general ANOVA using Dunnett's Multiple Comparison test when multiple compounds were tested in the one experiment or a two-tailed […] t-test when only one compound was tested (Prism 4, Graphpad Software). The data has been presented graphically as the mean percentage inhibition of oedema, calculated as: […]. Results

| Structure (SMILES) | IC50 (NCI-H460) [µM] | TXA2 ([1]; test compound 1 μM) [pg] | TXA2 ([1]; test compound 10 μM) [pg] | TXA2 (pg) [1] | IC50 ([2]; Homo sapiens, average over three different assays, 4-5 days, read-out: average IC50, inhibition of proliferation of HUVSMC) [µM] | IC50 [3] [µM] | IC50 (MM200) [µM] | IC50 (HT29) [µM] | IC50 (HPAC) [µM] | % Change compared with vehicle (PMA-induced ear oedema) [%] | Change in ear thickness (mean ± SD, × 0.01 mm) (PMA-induced ear oedema) [× 0.01 mm] | effect on TXA2 synthesis ([1]; 100 μM) | effect on proliferation of HUVSMCs induced by FCS ([2]; 10 μM, 10% FCS, 5 days, FIG. 8) |
| --- | --- | --- | --- | --- | --- | --- | --- | --- | --- | --- | --- | --- | --- |
| Oc1ccc(C2=Cc3cc4c(cc3OC2)OCN(Cc2ccccc2)C4)cc1 [Compound 1, 4-(3-Benzyl-2,3,4,8-tetrahydrochromeno[6,7-e][1,3]oxazin-7-yl)phenol] | 4.61 | 48.720 ± 2.927 | 17.421 ± 5.747 | 6.397 ± 0.557^a pg | 15 | 23 | 6.1 ± 1.6 | 20.6 ± 2.1 | 18.2 ± 8.1 | −9 | 28.9 ± 3.1 |  |  |
| CC(c1ccccc1)N1COc2cc3c(cc2C1)C=C(c1ccc(O)cc1)CO3 (centres unmarked) [Compound 2, 4-(3-(1-Phenylethyl)-2,3,4,8-tetrahydrochromeno[6,7-e][1,3]oxazin-7-yl)phenol] | 8.77 ± 3.7 | 30.680 ± 2.708 | 21.298 ± 0.914 | 2.313 ± 0.113^a pg |  |  | 4.76 ± 1.3 | 11.8 ± 0.7 | 18.3 ± 11 | −3 | 30.9 ± 2.2 | inhibit TXA2 synthesis | significantly inhibited the proliferation |
| Oc1cccc(C2=Cc3ccc(O)cc3OC2)c1 [Compound 37-DHE, 3′,7-dihydroxy-isoflav-3-ene, reference compound] |  |  |  |  |  | 45 |  |  |  |  |  |  |  |

— patent publication US8367659B2, “Oxazinyl isoflavonoid compounds, medicaments and use” (Marshall Edwards, Inc., priority 2007, dated 2013)
